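Where inhibition never reached the appropriate level, the endpoint shown equals the highest concentration tested. Otherwise, values were interpolated linearly from a five-concentration, 48-hour dose response in 96-well plates. Abbreviation: GI50, concentration required for 50% inhibition of growth. TGI: concentration producing complete growth inhibition.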
Assays:
Experiment in all cases: DTP human tumour cell line panel, 48 h
K-562 leukemia = tested on: K-562 leukemia
IGROV1 ovarian = tested on: IGROV1 ovarian
M14 melanoma = tested on: M14 melanoma
NCI-H522 lung = tested on: NCI-H522 lung
HS 578T breast = tested on: HS 578T breast
HOP-92 NSCLC = tested on: HOP-92 NSCLC
UO-31 renal = tested on: UO-31 renal
UACC-62 melanoma = tested on: UACC-62 melanoma
HL-60(TB) leukemia = tested on: HL-60(TB) leukemia
SF-295 CNS = tested on: SF-295 CNS
SK-OV-3 ovarian = tested on: SK-OV-3 ovarian
SN12C renal = tested on: SN12C renal
SF-268 CNS = tested on: SF-268 CNS
CCRF-CEM leukemia = tested on: CCRF-CEM leukemia
LOX IMVI melanoma = tested on: LOX IMVI melanoma
OVCAR-3 ovarian = tested on: OVCAR-3 ovarian
RPMI-8226 leukemia = tested on: RPMI-8226 leukemia
TK-10 renal = tested on: TK-10 renal
HT29 colon = tested on: HT29 colon
NCI-H23 lung = tested on: NCI-H23 lung
UACC-257 melanoma = tested on: UACC-257 melanoma
SF-539 CNS = tested on: SF-539 CNS
T-47D breast = tested on: T-47D breast
PC-3 prostate = tested on: PC-3 prostate
HCC-2998 colon = tested on: HCC-2998 colon
A498 renal = tested on: A498 renal
HCT-15 colon = tested on: HCT-15 colon
SR leukemia = tested on: SR leukemia
NCI/ADR-RES ovarian = tested on: NCI/ADR-RES ovarian
OVCAR-4 ovarian = tested on: OVCAR-4 ovarian
HCT-116 colon = tested on: HCT-116 colon
COLO 205 colon = tested on: COLO 205 colon
NCI-H226 lung = tested on: NCI-H226 lung
U251 CNS = tested on: U251 CNS
BT-549 breast = tested on: BT-549 breast
MCF7 breast = tested on: MCF7 breast
A549 NSCLC = tested on: A549 NSCLC
SK-MEL-28 melanoma = tested on: SK-MEL-28 melanoma
SNB-75 CNS = tested on: SNB-75 CNS
SK-MEL-2 melanoma = tested on: SK-MEL-2 melanoma
EKVX NSCLC = tested on: EKVX NSCLC
NCI-H460 lung = tested on: NCI-H460 lung
DU-145 prostate = tested on: DU-145 prostate
HOP-62 NSCLC = tested on: HOP-62 NSCLC
SNB-19 CNS = tested on: SNB-19 CNS
ACHN renal = tested on: ACHN renal
786-0 renal = tested on: 786-0 renal
SK-MEL-5 melanoma = tested on: SK-MEL-5 melanoma
MOLT-4 leukemia = tested on: MOLT-4 leukemia
KM12 colon = tested on: KM12 colon
MALME-3M melanoma = tested on: MALME-3M melanoma
OVCAR-8 ovarian = tested on: OVCAR-8 ovarian
SW-620 colon = tested on: SW-620 colon
RXF 393 renal = tested on: RXF 393 renal
OVCAR-5 ovarian = tested on: OVCAR-5 ovarian
MDA-MB-231 breast = tested on: MDA-MB-231 breast
MDA-MB-435 = tested on: MDA-MB-435
CAKI-1 renal = tested on: CAKI-1 renal

## Nc1c(C(=O)Nc2cccc3ccccc23)sc2nc3c(cc12)CCCCCC3
K-562 leukemia
  GI50: 0.301 µM
  TGI: > 50 µM
IGROV1 ovarian
  GI50: 2.31 µM
  TGI: > 50 µM
M14 melanoma
  GI50: 1.05 µM
  TGI: > 50 µM
NCI-H522 lung
  GI50: 0.865 µM
  TGI: 4.33 µM
HS 578T breast
  GI50: 1.59 µM
  TGI: > 50 µM
HOP-92 NSCLC
  GI50: 6.58 µM
  TGI: > 50 µM
UO-31 renal
  GI50: 5.6 µM
  TGI: > 50 µM
UACC-62 melanoma
  GI50: 1.62 µM
  TGI: > 50 µM
HL-60(TB) leukemia
  GI50: 1.65 µM
  TGI: > 50 µM
SF-295 CNS
  GI50: 1.39 µM
  TGI: > 50 µM
SK-OV-3 ovarian
  GI50: 1.95 µM
  TGI: > 50 µM
SN12C renal
  GI50: 3.4 µM
  TGI: > 50 µM
SF-268 CNS
  GI50: 2.77 µM
  TGI: > 50 µM
CCRF-CEM leukemia
  GI50: 1.65 µM
  TGI: > 50 µM
LOX IMVI melanoma
  GI50: 1.96 µM
  TGI: > 50 µM
OVCAR-3 ovarian
  GI50: 0.979 µM
  TGI: 2.8 µM
RPMI-8226 leukemia
  GI50: 2.03 µM
  TGI: > 50 µM
TK-10 renal
  GI50: > 50 µM
  TGI: > 50 µM
HT29 colon
  GI50: 1.67 µM
  TGI: 5.58 µM
NCI-H23 lung
  GI50: 1.97 µM
  TGI: > 50 µM
UACC-257 melanoma
  GI50: > 50 µM
  TGI: > 50 µM
SF-539 CNS
  GI50: 1.24 µM
  TGI: > 50 µM
T-47D breast
  GI50: 25.1 µM
  TGI: > 50 µM
PC-3 prostate
  GI50: 1.79 µM
  TGI: > 50 µM
HCC-2998 colon
  GI50: 2.64 µM
  TGI: > 50 µM
A498 renal
  GI50: 2.48 µM
  TGI: 42.5 µM
HCT-15 colon
  GI50: 0.772 µM
  TGI: > 50 µM
SR leukemia
  GI50: 0.429 µM
  TGI: > 50 µM
NCI/ADR-RES ovarian
  GI50: 0.784 µM
  TGI: > 50 µM
OVCAR-4 ovarian
  GI50: 5.75 µM
  TGI: > 50 µM
HCT-116 colon
  GI50: 1.72 µM
  TGI: > 50 µM
COLO 205 colon
  GI50: 1.45 µM
  TGI: 4.8 µM
NCI-H226 lung
  GI50: 5.5 µM
  TGI: > 50 µM
U251 CNS
  GI50: 1.87 µM
  TGI: > 50 µM
BT-549 breast
  GI50: 0.954 µM
  TGI: 4.81 µM
MCF7 breast
  GI50: 0.302 µM
  TGI: > 50 µM
A549 NSCLC
  GI50: 2.54 µM
  TGI: > 50 µM
SK-MEL-28 melanoma
  GI50: > 50 µM
  TGI: > 50 µM
SNB-75 CNS
  GI50: 1.24 µM
  TGI: > 50 µM
SK-MEL-2 melanoma
  GI50: 17 µM
  TGI: > 50 µM
EKVX NSCLC
  GI50: 2.9 µM
  TGI: > 50 µM
NCI-H460 lung
  GI50: 1.76 µM
  TGI: > 50 µM
DU-145 prostate
  GI50: 2.05 µM
  TGI: > 50 µM
HOP-62 NSCLC
  GI50: 5.05 µM
  TGI: > 50 µM
SNB-19 CNS
  GI50: 2.62 µM
  TGI: > 50 µM
ACHN renal
  GI50: 2.79 µM
  TGI: > 50 µM
786-0 renal
  GI50: 2.13 µM
  TGI: > 50 µM
SK-MEL-5 melanoma
  GI50: 0.929 µM
  TGI: 6.85 µM
MOLT-4 leukemia
  GI50: 2.38 µM
  TGI: > 50 µM
KM12 colon
  GI50: 1.39 µM
  TGI: > 50 µM
MALME-3M melanoma
  GI50: > 50 µM
  TGI: > 50 µM
OVCAR-8 ovarian
  GI50: 2 µM
  TGI: > 50 µM
SW-620 colon
  GI50: 1.45 µM
  TGI: > 50 µM
RXF 393 renal
  GI50: 1.5 µM
  TGI: > 50 µM
OVCAR-5 ovarian
  GI50: 2.7 µM
  TGI: > 50 µM
MDA-MB-231 breast
  GI50: 2.75 µM
  TGI: > 50 µM

## COc1ccc(-c2cc(-c3ccncc3)nc(N)c2-c2ccc(F)cc2)cc1
K-562 leukemia
  TGI: > 100 µM
IGROV1 ovarian
  TGI: > 100 µM
M14 melanoma
  TGI: > 100 µM
NCI-H522 lung
  TGI: 27.1 µM
HS 578T breast
  TGI: > 100 µM
HOP-92 NSCLC
  TGI: > 100 µM
UO-31 renal
  TGI: > 100 µM
UACC-62 melanoma
  TGI: > 100 µM
SF-295 CNS
  TGI: > 100 µM
SK-OV-3 ovarian
  TGI: > 100 µM
SF-268 CNS
  TGI: > 100 µM
CCRF-CEM leukemia
  TGI: > 100 µM
LOX IMVI melanoma
  TGI: > 100 µM
MDA-MB-435
  TGI: > 100 µM
OVCAR-3 ovarian
  TGI: > 100 µM
RPMI-8226 leukemia
  TGI: > 100 µM
TK-10 renal
  TGI: > 100 µM
HT29 colon
  TGI: > 100 µM
NCI-H23 lung
  TGI: > 100 µM
UACC-257 melanoma
  TGI: > 100 µM
SF-539 CNS
  TGI: 46.8 µM
T-47D breast
  TGI: > 100 µM
PC-3 prostate
  TGI: > 100 µM
A498 renal
  TGI: > 100 µM
HCT-15 colon
  TGI: > 100 µM
SR leukemia
  TGI: 38.7 µM
NCI/ADR-RES ovarian
  TGI: > 100 µM
OVCAR-4 ovarian
  TGI: > 100 µM
HCT-116 colon
  TGI: 51.7 µM
COLO 205 colon
  TGI: 97.3 µM
NCI-H226 lung
  TGI: > 100 µM
U251 CNS
  TGI: > 100 µM
CAKI-1 renal
  TGI: > 100 µM
BT-549 breast
  TGI: > 100 µM
MCF7 breast
  TGI: > 100 µM
A549 NSCLC
  TGI: > 100 µM
SNB-75 CNS
  TGI: > 100 µM
SK-MEL-2 melanoma
  TGI: > 100 µM
EKVX NSCLC
  TGI: > 100 µM
NCI-H460 lung
  TGI: 57.6 µM
HOP-62 NSCLC
  TGI: > 100 µM
SNB-19 CNS
  TGI: > 100 µM
ACHN renal
  TGI: 75.4 µM
786-0 renal
  TGI: > 100 µM
SK-MEL-5 melanoma
  TGI: > 100 µM
MOLT-4 leukemia
  TGI: > 100 µM
KM12 colon
  TGI: > 100 µM
MALME-3M melanoma
  TGI: > 100 µM
OVCAR-8 ovarian
  TGI: > 100 µM
SW-620 colon
  TGI: > 100 µM
RXF 393 renal
  TGI: 68.6 µM
OVCAR-5 ovarian
  TGI: > 100 µM
MDA-MB-231 breast
  TGI: > 100 µM

Reference: PubChem BioAssay (NCI)
